# Laboratory results reported in PubChem BioAssay AID1963974 (Molecular Pharmacology Branch, DTP, NCI, 2024).
# Test system: 648629-189-R-J1-PDC spheroids with HUVEC/MSC, viability
# Experiment: Anticancer human tumor 648629-189-R-J1-PDC patient-derived bladder carcinoma cell line growth inhibition [PI3K]
# Conditions: for IC50: curve of first compound; for viability, T/C: stronger effect = lower value
# Procedure, shortened: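 Spheroid viability read-out. Co-cultures contained the tumor line plus HUVEC and human MSCs. Each agent was paired with a PI3K inhibitor (inavolisib, alpelisib, duvelisib, copanlisib) across half-log dilutions starting at clinical Cmax, or at 10 microM when Cmax was unknown.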
# [1] = second compound 0.0316 µM, first compound 0.0316 µM
# [2] = second compound 0.0316 µM, first compound 0.1 µM
# [3] = second compound 0.1 µM, first compound 0.0316 µM
# [4] = second compound 0.1 µM, first compound 0.1 µM
# [5] = second compound 0.316 µM, first compound 0.0316 µM
# [6] = second compound 0.316 µM, first compound 0.1 µM
# [7] = second compound 1 µM, first compound 0.0316 µM
# [8] = second compound 1 µM, first compound 0.1 µM
# 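Further: spheroids exposed to agents for seven days before reading.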
# 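Wherever viability, T/C is given: percent of vehicle control luminescence where 100% = DMSO treated spheroids.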
compound,measurement,setting,value
Cn1ncnc1[C@H]1c2n[nH]c(=O)c3cc(F)cc(c23)N[C@@H]1c1ccc(F)cc1 + CC(Nc1ncnc2nc[nH]c12)c1cc2cccc(Cl)c2c(=O)n1-c1ccccc1,IC50,second compound 0.0316 µM,> 0.1 µM
same,IC50,second compound 0.1 µM,> 0.1 µM
same,IC50,second compound 0.316 µM,> 0.1 µM
same,IC50,second compound 1 µM,> 0.1 µM
same,IC50,second compound 3.16 µM,> 0.1 µM
same,IC50,second compound 10 µM,> 0.1 µM
same,"viability, T/C","second compound 0.0316 µM, first compound 0.000316 µM",99.8%
same,"viability, T/C","second compound 0.0316 µM, first compound 0.001 µM",100%
same,"viability, T/C","second compound 0.0316 µM, first compound 0.00316 µM",99.8%
same,"viability, T/C","second compound 0.0316 µM, first compound 0.01 µM",88.1%
same,"viability, T/C",[1],67.2%
same,"viability, T/C",[2],71%
same,"viability, T/C","second compound 0.1 µM, first compound 0.000316 µM",97.8%
same,"viability, T/C","second compound 0.1 µM, first compound 0.001 µM",101%
same,"viability, T/C","second compound 0.1 µM, first compound 0.00316 µM",98.2%
same,"viability, T/C","second compound 0.1 µM, first compound 0.01 µM",81.2%
same,"viability, T/C",[3],93.2%
same,"viability, T/C",[4],66.7%
same,"viability, T/C","second compound 0.316 µM, first compound 0.000316 µM",94.2%
same,"viability, T/C","second compound 0.316 µM, first compound 0.001 µM",98.2%
same,"viability, T/C","second compound 0.316 µM, first compound 0.00316 µM",91.9%
same,"viability, T/C","second compound 0.316 µM, first compound 0.01 µM",92%
same,"viability, T/C",[5],85.4%
same,"viability, T/C",[6],59.1%
same,"viability, T/C","second compound 1 µM, first compound 0.000316 µM",111%
same,"viability, T/C","second compound 1 µM, first compound 0.001 µM",100%
same,"viability, T/C","second compound 1 µM, first compound 0.00316 µM",97.8%
same,"viability, T/C","second compound 1 µM, first compound 0.01 µM",82.3%
same,"viability, T/C",[7],74.4%
same,"viability, T/C",[8],65.1%
same,"viability, T/C","second compound 3.16 µM, first compound 0.000316 µM",96.4%
same,"viability, T/C","second compound 3.16 µM, first compound 0.001 µM",89.6%
same,"viability, T/C","second compound 3.16 µM, first compound 0.00316 µM",88.7%
same,"viability, T/C","second compound 3.16 µM, first compound 0.01 µM",86.5%
same,"viability, T/C","second compound 3.16 µM, first compound 0.0316 µM",81.6%
same,"viability, T/C","second compound 3.16 µM, first compound 0.1 µM",58.9%
same,"viability, T/C","second compound 10 µM, first compound 0.000316 µM",90.4%
same,"viability, T/C","second compound 10 µM, first compound 0.001 µM",86.7%
same,"viability, T/C","second compound 10 µM, first compound 0.00316 µM",80.7%
same,"viability, T/C","second compound 10 µM, first compound 0.01 µM",80.7%
same,"viability, T/C","second compound 10 µM, first compound 0.0316 µM",71.1%
same,"viability, T/C","second compound 10 µM, first compound 0.1 µM",55.9%
CNC(=O)c1ccc(N2C(=S)N(c3ccc(C#N)c(C(F)(F)F)c3)C(=O)C2(C)C)cc1F + CC(Nc1ccc2c(c1)OCCn1cc(N3C(=O)OCC3C(F)F)nc1-2)C(N)=O,IC50,second compound 0.00316 µM,> 10 µM
same,IC50,second compound 0.01 µM,> 10 µM
same,IC50,second compound 0.0316 µM,> 10 µM
same,IC50,second compound 0.1 µM,> 10 µM
same,IC50,second compound 0.316 µM,> 10 µM
same,IC50,second compound 1 µM,> 10 µM
same,"viability, T/C","second compound 0.00316 µM, first compound 0.0316 µM",107%
same,"viability, T/C","second compound 0.00316 µM, first compound 0.1 µM",96.5%
same,"viability, T/C","second compound 0.00316 µM, first compound 0.316 µM",107%
same,"viability, T/C","second compound 0.00316 µM, first compound 1 µM",97.6%
same,"viability, T/C","second compound 0.00316 µM, first compound 3.16 µM",110%
same,"viability, T/C","second compound 0.00316 µM, first compound 10 µM",83.4%
same,"viability, T/C","second compound 0.01 µM, first compound 0.0316 µM",99.6%
same,"viability, T/C","second compound 0.01 µM, first compound 0.1 µM",109%
same,"viability, T/C","second compound 0.01 µM, first compound 0.316 µM",97.2%
same,"viability, T/C","second compound 0.01 µM, first compound 1 µM",98.1%
same,"viability, T/C","second compound 0.01 µM, first compound 3.16 µM",94.8%
same,"viability, T/C","second compound 0.01 µM, first compound 10 µM",87.1%
same,"viability, T/C",[1],103%
same,"viability, T/C",[2],107%
same,"viability, T/C","second compound 0.0316 µM, first compound 0.316 µM",102%
same,"viability, T/C","second compound 0.0316 µM, first compound 1 µM",101%
same,"viability, T/C","second compound 0.0316 µM, first compound 3.16 µM",90.5%
same,"viability, T/C","second compound 0.0316 µM, first compound 10 µM",78.5%
same,"viability, T/C",[3],93%
same,"viability, T/C",[4],94.8%
same,"viability, T/C","second compound 0.1 µM, first compound 0.316 µM",102%
same,"viability, T/C","second compound 0.1 µM, first compound 1 µM",102%
same,"viability, T/C","second compound 0.1 µM, first compound 3.16 µM",88%
same,"viability, T/C","second compound 0.1 µM, first compound 10 µM",79.2%
same,"viability, T/C",[5],83.4%
same,"viability, T/C",[6],79.1%
same,"viability, T/C","second compound 0.316 µM, first compound 0.316 µM",93%
same,"viability, T/C","second compound 0.316 µM, first compound 1 µM",75.5%
same,"viability, T/C","second compound 0.316 µM, first compound 3.16 µM",84.3%
same,"viability, T/C","second compound 0.316 µM, first compound 10 µM",68%
same,"viability, T/C",[7],69.7%
same,"viability, T/C",[8],67.5%
same,"viability, T/C","second compound 1 µM, first compound 0.316 µM",72.1%
same,"viability, T/C","second compound 1 µM, first compound 1 µM",63.7%
same,"viability, T/C","second compound 1 µM, first compound 3.16 µM",75.4%
same,"viability, T/C","second compound 1 µM, first compound 10 µM",68%
